Experimental data from patent publication US20230330254A1 (Regeneron Pharmaceuticals, Inc., priority 2022, published 2023).
Converted amounts (≈) assume the structure as drawn. Read-outs that look alike come from different tables or passages of the source.

Experiments:
[1] = molecular target: T1, human glucagon-like peptide 2 receptor (GLP2R) (Homo sapiens, UniProt O95838); test: Luciferase reporter assay, HEK293/CRE-Luc/hGLP2R (Example 17); format: cell-based; details: Table 28; CRE-dependent luciferase reporter activity
T1 construct: full-length human GLP1R, cynomolgus GLP1R, human glucagon receptor (GCGR), human glucagon-like peptide 2 receptor (GLP2R); expressed in transfected cells; host or cells: HEK293/CRE-Luc
T1 sequence (O95838 1-553): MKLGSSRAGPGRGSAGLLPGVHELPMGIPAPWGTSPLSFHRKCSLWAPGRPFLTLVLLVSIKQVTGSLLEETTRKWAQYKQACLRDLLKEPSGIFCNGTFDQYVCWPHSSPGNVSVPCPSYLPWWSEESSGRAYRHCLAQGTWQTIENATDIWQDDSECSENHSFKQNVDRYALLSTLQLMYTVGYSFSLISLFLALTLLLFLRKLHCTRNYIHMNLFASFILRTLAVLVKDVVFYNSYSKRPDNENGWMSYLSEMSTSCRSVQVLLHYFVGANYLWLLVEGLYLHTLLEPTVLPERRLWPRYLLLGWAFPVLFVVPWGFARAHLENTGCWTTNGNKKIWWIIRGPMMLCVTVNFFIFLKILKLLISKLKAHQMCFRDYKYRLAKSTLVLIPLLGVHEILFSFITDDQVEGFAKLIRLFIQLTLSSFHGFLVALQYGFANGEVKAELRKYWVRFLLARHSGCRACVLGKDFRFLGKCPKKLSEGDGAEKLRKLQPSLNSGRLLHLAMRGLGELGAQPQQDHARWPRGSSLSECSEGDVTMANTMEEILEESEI

[2] = Plasma stability of payloads and linker-payloads, monkey plasma; format: in vitro ADME; details: pooled plasma
Experimental: The plasma stability of payloads and linker payloads of the disclosure were measured. For the assay, pooled frozen plasma (human, mouse or monkey) was thawed in cold water or a 37° C. water bath prior to experiment. Plasma was centrifuged at 4000 rpm for 5 min if any clots were observed, they were subsequently removed. If required, the pH was adjusted to 7.4±0.1. For the preparation of compounds and positive controls, a 1 mM intermediate solution was prepared by diluting 10 μL of their stock solution with 90 μL DMSO; a 1 mM intermediate solution of the positive control (Propantheline) was prepared by diluting 10 μL of its stock solution with 90 μL ultrapure water. Subsequently, 100 μM dosing solution for each compound was prepared by diluting 20 μL of the intermediate solution (1 mM) with 180 μL 45% MeOH/H2O. 98 μL of plasma was spiked with 2 μL of dosing solution (100 μM) to achieve the final concentration of 2 μM in duplicate. Samples were then incubated at 37° C. in a water bath. […] At each time point, 400 μL of stop solution (200 ng/mL tolbutamide plus 200 ng/mL labetalol in 50% ACN/MeOH) was added to precipitate protein and mixed thoroughly. Sample plates were then centrifuged at 4,000 rpm for 10 min. An aliquot of supernatant (50 μL) was transferred from each well and mixed with 100 μL ultrapure water. The samples were then shaken at 800 rpm for approximately 10 min before submitting for LC-MS/MS analysis.

[3] = molecular target: T2, human glucagon receptor (GCGR) (Homo sapiens, UniProt P47871); test: CRE-luciferase reporter assay, HEK293/Myc-hGCGR/Cre-Luc (Example 9); format: cell-based; details: Table 5C
T2 construct: full-length human GLP1R, cynomolgus GLP1R, human glucagon receptor (GCGR); expressed in transfected cells; host or cells: HEK293/CRE-Luc
T2 sequence (P47871 26-477): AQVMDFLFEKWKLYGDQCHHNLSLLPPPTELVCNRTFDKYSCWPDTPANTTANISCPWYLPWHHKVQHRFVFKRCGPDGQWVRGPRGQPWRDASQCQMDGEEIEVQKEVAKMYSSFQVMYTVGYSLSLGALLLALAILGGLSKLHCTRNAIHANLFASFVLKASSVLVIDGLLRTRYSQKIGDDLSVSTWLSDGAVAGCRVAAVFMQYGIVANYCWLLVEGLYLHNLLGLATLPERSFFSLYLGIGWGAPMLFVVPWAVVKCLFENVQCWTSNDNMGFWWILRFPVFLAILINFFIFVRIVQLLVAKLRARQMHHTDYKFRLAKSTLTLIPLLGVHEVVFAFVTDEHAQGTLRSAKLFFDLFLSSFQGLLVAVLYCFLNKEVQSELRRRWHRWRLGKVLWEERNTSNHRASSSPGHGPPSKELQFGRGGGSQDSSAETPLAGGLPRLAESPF
Experimental: To test the activity of GLP1R agonist payloads and GLP1R agonist linker-payloads (LPs) in vitro, a cell-based cAMP responsive luciferase reporter assay was developed.
Cells were incubated overnight at 37° C. in 5% CO2. […] Plates were incubated for 5.5 h at 37° C. in 5% CO2. For end-point measurement, 100 μL/well of One-Glo reagent (Promega, #E6051) was added and plates were kept at room temperature for 5-10 minutes. Luciferase activity was measured on Envision Multilabel Plate Reader (Perkin Elmer) in Luminescent mode. The relative light units (RLU) values were obtained and the results were analyzed using nonlinear regression with GraphPad Prism software (GraphPad).

[4] = Plasma protein binding (equilibrium dialysis); format: in vitro ADME, human
Experimental: The pH value of the resulting plasma was checked
(<http://www.htdialysis.com/>).
DMSO working solutions were prepared at 400 μM. […] These samples were transferred into new 96-well plates.

hERG potassium channels = hERG potassium channels (Homo sapiens, UniProt Q12809); test: cell-based
hERG potassium channels, sequence (Q12809 whole entry): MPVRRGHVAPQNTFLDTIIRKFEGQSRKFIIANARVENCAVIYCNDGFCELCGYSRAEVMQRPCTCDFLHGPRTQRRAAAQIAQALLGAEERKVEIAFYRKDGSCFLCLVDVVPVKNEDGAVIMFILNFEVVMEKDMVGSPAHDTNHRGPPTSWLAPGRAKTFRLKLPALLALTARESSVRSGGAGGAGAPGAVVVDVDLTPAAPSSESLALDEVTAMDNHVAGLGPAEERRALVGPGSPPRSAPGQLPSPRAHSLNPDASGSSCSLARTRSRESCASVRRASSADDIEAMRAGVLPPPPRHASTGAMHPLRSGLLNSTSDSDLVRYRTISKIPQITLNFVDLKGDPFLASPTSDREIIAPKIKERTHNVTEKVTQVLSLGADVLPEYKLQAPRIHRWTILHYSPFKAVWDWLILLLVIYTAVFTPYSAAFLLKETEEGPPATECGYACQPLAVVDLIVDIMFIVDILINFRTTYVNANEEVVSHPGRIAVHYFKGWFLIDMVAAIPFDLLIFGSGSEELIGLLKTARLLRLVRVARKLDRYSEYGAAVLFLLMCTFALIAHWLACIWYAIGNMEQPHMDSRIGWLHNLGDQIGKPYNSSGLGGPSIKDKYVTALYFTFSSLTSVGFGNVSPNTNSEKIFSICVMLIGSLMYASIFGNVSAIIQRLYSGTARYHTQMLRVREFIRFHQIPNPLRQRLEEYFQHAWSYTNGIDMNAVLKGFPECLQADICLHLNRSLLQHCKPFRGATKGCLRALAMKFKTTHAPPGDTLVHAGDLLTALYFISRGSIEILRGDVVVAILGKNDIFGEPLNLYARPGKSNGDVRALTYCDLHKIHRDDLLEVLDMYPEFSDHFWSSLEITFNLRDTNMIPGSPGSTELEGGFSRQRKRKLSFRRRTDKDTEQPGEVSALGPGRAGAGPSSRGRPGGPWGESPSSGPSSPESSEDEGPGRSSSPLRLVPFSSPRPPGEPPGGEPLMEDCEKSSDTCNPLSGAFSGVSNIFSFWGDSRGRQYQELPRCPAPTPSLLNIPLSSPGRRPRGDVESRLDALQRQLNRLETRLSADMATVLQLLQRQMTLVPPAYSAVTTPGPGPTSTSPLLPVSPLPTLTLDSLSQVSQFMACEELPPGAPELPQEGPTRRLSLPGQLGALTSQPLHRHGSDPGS
Experimental: For the assay, CHO cells stably expressing hERG potassium channels were plated and cultured for at least 2 days in a humidified and air-controlled (5% CO2) incubator at 37° C. prior to use in electrophysiological experiments. Cells were then harvested using TrypLE and resuspended in physiological solution (10 mM HEPES, 80 mM NaCl, 4 mM KCl, 2 mM CaCl2, 1 mM MgCl2, 5 mM Glucose, 60 mM NM DG, pH 7.4). Test compounds were dissolved in water to obtain stock solutions for different test concentrations. […] One 40 μL addition of the vehicle was applied, followed by a 300s baseline recording period. […] Recordings were required to pass quality control over the duration of the recording or the well was abandoned, and the compound was retested, all automatically set by PatchControl. […] A minimum of 2 replicates per concentration were obtained. […] Curve-fitting and IC50 value calculations were performed by GraphPad Prism 5.0.

Water solubility = format: physicochemical; details: Table 5C

Row | SMILES | EC50 [1] [µM] | half-life at 2 µM ([2]; pH 7.4, Monkey, assay time 3 days, Table 5B, read-out: plasma stability T½) [h] | half-life at 2 µM ([2]; pH 7.4, Table 5A, monkey plasma, tested time C (3 days), read-out: plasma stability T½ (hr), monkey) [h] | half-life at 2 µM ([2]; pH 7.4, Table 5C, read-out: Plasma Stability Monkey T1/2) [h] | GCGR EC50 (nM) [3] | % Bound ([4]; Human Plasma, 4 hours dialysis) [%] | % Unbound ([4]; Human Plasma, 4 hours dialysis) [%] | recovery at 4 h, 2 µM ([4]; Human Plasma, 4 hours dialysis) [%] | fraction unbound at 4 h, 2 µM ([4]; human, plasma, Table 5C) | IC50 (hERG potassium channels) [µM] | IC50 (hERG potassium channels; human, pH 7.4) [µM] | solubility (Water solubility) [mM]
1 | CCc1cc(OCCCCn2cc(COCCOCCOCCOCCOCCOCCOCCOCCN)nn2)ccc1-c1ccc(C[C@H](NC(=O)[C@H](CC(=O)O)NC(=O)[C@H](CO)NC(=O)[C@@H](NC(=O)[C@](C)(Cc2ccccc2F)NC(=O)[C@@H](NC(=O)CNC(=O)[C@H](Cc2nn[nH]n2)NC(=O)C(C)(C)C(=O)NCCc2cnc[nH]2)[C@@H](C)O)[C@@H](C)O)C(=O)N[C@@H](CCCc2cc(C)cc(C)c2)C(N)=O)cc1 [M3190] | > 0.2 |  |  |  |  |  |  |  |  |  |  | 
2 | CCc1cc(OCCCCn2cc(COCCOCCOCCOCCOCCOCCOCCOCCN)nn2)ccc1-c1ccc(C[C@H](NC(=O)[C@H](CC(=O)O)NC(=O)[C@H](CO)NC(=O)[C@@H](NC(=O)C(C)(Cc2ccccc2F)NC(=O)[C@@H](NC(=O)CNC(=O)[C@H](Cc2nn[nH]n2)NC(=O)C(C)(C)C(=O)NCCc2cnc[nH]2)[C@@H](C)O)[C@@H](C)O)C(=O)N[C@@H](CCCc2cc(C)cc(C)c2)C(N)=O)cc1 (stereo partly drawn) [LP11, NH2-PEG8-triazole-P8] |  | > 49.4 | > 49.4 | > 48 | Completely inactive | 97.97 | 2.03 | 89.2 | 0.0203 | > 100 | > 100 | 60 (≈ 119 mg/mL)
